Test system: conscious dogs
Assay: Gastric emptying of an acaloric liquid test meal delayed by administration of lidamidine, in conscious dogs
Assay type: in vivo, beagle dogs
Conditions: compounds, conscious dog, Δt = t 70% compound minus t 70% solvent, relative to t 70% solvent
Excerpt: C. Pharmacological Examples C.1. Gastric Emptying of an Acaloric Liquid Test Meal Delayed by Administration of Lidamidine, in Conscious Dogs
Female beagle dogs, weighing 7-14 kg, were trained to stand quietly in Pavlov frames. They were implanted with a gastric cannula under general anesthesia and aseptic precautions. After a medium laparatomy, an incision was made through the gastric wall in the longitudinal direction between the greater and the lesser curve, 2 cm above the nerves of Latarjet. The cannula was secured to the gastric wall by means of a double purse string suture and brought out via a stab wound at the left quadrant of the hypochondrium. Dogs were allowed a recovery period of at least two weeks. Experiments were started after a fasting period of 24 hours, during which water was available ad libitum. At the beginning of the experiment, the cannula was opened in order to remove any gastric juice or food remnants.
The stomach was cleansed with 40 to 50 ml lukewarm water. The test compound was administered I.V. (in a volume ≦3 ml via the vena cephalica), S.C. (in a volume ≦3 ml) or P.O. (in a volume of 1 ml/kg body weight, applied intragastrically via the cannula with a device that filled the lumen of the cannula: after injection of the test compound; 5 ml NaCl 0.9% was injected in order to correct for the dead space in the injection system). Immediately after administration of the test compound or its solvent, lidamidine (0.63 mg/kg was administered subcutaneously. 30 min later, the cannula was opened to determine the amount of fluid present in the stomach, promptly followed by reintroduction of the fluid. Then the test meal was administered via the cannula. This test meal consisted of 250 ml distilled water containing glucose (5 g/l) as a marker. The cannula remained closed for 30 min, whereafter the gastric contents were drained from the stomach to measure total volume (t=30 min). For later analysis 1 ml of the gastric contents was taken, promptly followed by reintroduction of the rest volume into the stomach. This sequence was repeated 4 times with 30 min intervals (t=60, 90, 120, 150 min).
In the 1 ml samples of the gastric contents, the glucose concentrations were measured on a Hitachi 717 automatic analyzer by the hexokinase method (Schmidt, 1961).
Curves were fitted to the measurement points (glucose versus time) using weighed non-linear regression analysis. Gastric emptying was quantified as the time needed to empty 70% of the meal (t 70%). The control emptying time was calculated as the mean t 70% of the last 5 solvent experiments of the same dog. Acceleration of delayed gastric emptying (Δt) was calculated as the time difference between t 70% compound and t 70% solvent. To correct for variations in emptying rate between dogs, Δt was expressed as % of t 70% solvent (Schuurkes et al. 1992)).

| Compound | ΔT/T^b (acceleration of gastric emptying of a liquid meal delayed by lidamidine) (dose 0.0025 mg/kg) | ΔT/T^a (acceleration of gastric emptying of a liquid meal delayed by lidamidine) (dose 0.01 mg/kg) | change in vivo at 0.0025 mg/kg (Canis lupus familiaris, dose 0.0025 mg/kg, read-out: ΔT/T^b (acceleration of gastric emptying of a liquid meal delayed by lidamidine)) [%] | change in vivo at 0.01 mg/kg (Canis lupus familiaris, dose 0.01 mg/kg, read-out: ΔT/T^a (acceleration of gastric emptying of a liquid meal delayed by lidamidine)) [%] |
| --- | --- | --- | --- | --- |
| CC(=O)CCCN1CC[C@@H](CNC(=O)c2cc(Cl)c(N)c3c2OCCO3)[C@H](O)C1.O (relative stereo) [Compound 59] | −0.15 | −0.13 |  |  |
| CCCCN1CC[C@@H](CNC(=O)c2cc(Cl)c(N)c3c2OCCCO3)[C@H](O)C1.Cl (relative stereo) [Compound 65] |  | −0.07 |  |  |
| Nc1c(Cl)cc(C(=O)NC[C@@H]2CCN(CCCO)C[C@H]2O)c2c1CCCO2.O.O (relative stereo) [Compound 74] |  | −0.51 |  |  |
| Nc1c(Cl)cc(C(=O)NC[C@@H]2CCN(CCOCCO)C[C@H]2O)c2c1CCCO2.O=C(O)C(=O)O (relative stereo) [Compound 75] | −0.39 | −0.01 |  |  |
| N#CCN1CC[C@@H](CNC(=O)c2cc(Cl)c(N)c3c2OCCC3)[C@H](O)C1 (relative stereo) [Compound 76] |  | −0.18 |  |  |
| N#CCCCN1CC[C@@H](CNC(=O)c2cc(Cl)c(N)c3c2OCCC3)[C@H](O)C1 (relative stereo) [Compound 77] |  | −0.18 |  |  |
| CCCCN1CC[C@@H](CNC(=O)c2cc(Cl)c(N)c3c2OCCC3)[C@H](O)C1 (relative stereo) [Compound 78, trans-5-amino-N-[(1-butyl-3-hydroxy-4-piperidinyl)methyl]-6-chloro-3,4-dihydro-2H-1-benzopyran-8-carboxamide] |  |  | -33 | -50 |
| CC(=O)CCCN1CC[C@@H](CNC(=O)c2cc(Cl)c(N)c3c2OCCC3)[C@H](O)C1 (relative stereo) [Compound 80] | −0.11 | −0.51 |  |  |
| COCCCN1CCC(O)(CNC(=O)c2cc(Cl)c(N)c3c2OC(C)(C)C3)CC1 [Compound 86] | −0.33 | −0.47 |  |  |
| CC(=O)CCCN1CCC(O)(CNC(=O)c2cc(Cl)c(N)c3c2OC(C)(C)C3)CC1 [Compound 93] |  | −0.03 |  |  |
| (cis)-4-amino-5-chloro-2,3-dihydro-N-[[3-hydroxy-1-[3-(2-methyl-1,3-dioxolan-2-yl)propyl-]4-piperidinyl]methyl]-7-benzofurancarboxamide [Compound 7] | −0.07 | 0.11 |  |  |
